PubChem BioAssay AID1259407 (Chemical Carcinogenesis Research Information System (CCRIS), 2018)
Activity calls are given as the source filed them. No rule for the calls is given here.

Tested on: CCRIS mutagenicity, Ames/micronucleus/aberration tests
Test: CCRIS mutagenicity studies
[1] = Test System: AMES SALMONELLA TYPHIMURIUM, Strain/Indicator: TA98, Metabolic Activation: NONE, Method: PREINCUBATION
[2] = Test System: AMES SALMONELLA TYPHIMURIUM, Strain/Indicator: TA100, Metabolic Activation: NONE, Method: PREINCUBATION

## CC(C)CO
Test System: AMES SALMONELLA TYPHIMURIUM, Strain/Indicator: TA97, Metabolic Activation: HAMSTER, LIVER, S-9, AROCLOR 1254 (10 OR 30%), Method: PREINCUBATION
  mutagenic call: inactive; negative
Test System: AMES SALMONELLA TYPHIMURIUM, Strain/Indicator: TA97, Metabolic Activation: NONE, Method: PREINCUBATION
  mutagenic call: inactive; negative
Test System: AMES SALMONELLA TYPHIMURIUM, Strain/Indicator: TA97, Metabolic Activation: RAT, LIVER, S-9, AROCLOR 1254 (10 OR 30%), Method: PREINCUBATION
  mutagenic call: inactive; negative
Test System: AMES SALMONELLA TYPHIMURIUM, Strain/Indicator: TA98, Metabolic Activation: HAMSTER, LIVER, S-9, AROCLOR 1254 (10 OR 30%), Method: PREINCUBATION
  mutagenic call: inactive; negative
[1]
  mutagenic call: inactive; negative
Test System: AMES SALMONELLA TYPHIMURIUM, Strain/Indicator: TA98, Metabolic Activation: RAT, LIVER, S-9, AROCLOR 1254 (10 OR 30%), Method: PREINCUBATION
  mutagenic call: inactive; negative
Test System: AMES SALMONELLA TYPHIMURIUM, Strain/Indicator: TA98, Metabolic Activation: RAT, LIVER, S-9, KC 500, Method: PREINCUBATION
  mutagenic call: inactive; negative
Test System: AMES SALMONELLA TYPHIMURIUM, Strain/Indicator: TA100, Metabolic Activation: HAMSTER, LIVER, S-9, AROCLOR 1254 (10 OR 30%), Method: PREINCUBATION
  mutagenic call: inactive; negative
[2]
  mutagenic call: inactive; negative
Test System: AMES SALMONELLA TYPHIMURIUM, Strain/Indicator: TA100, Metabolic Activation: RAT, LIVER, S-9, AROCLOR 1254 (10 OR 30%), Method: PREINCUBATION
  mutagenic call: inactive; negative
Test System: AMES SALMONELLA TYPHIMURIUM, Strain/Indicator: TA100, Metabolic Activation: RAT, LIVER, S-9, KC 500, Method: PREINCUBATION
  mutagenic call: inactive; negative
Test System: AMES SALMONELLA TYPHIMURIUM, Strain/Indicator: TA1535, Metabolic Activation: HAMSTER, LIVER, S-9, AROCLOR 1254 (10 OR 30%), Method: PREINCUBATION
  mutagenic call: inactive; negative
Test System: AMES SALMONELLA TYPHIMURIUM, Strain/Indicator: TA1535, Metabolic Activation: NONE, Method: PREINCUBATION
  mutagenic call: inactive; negative
Test System: AMES SALMONELLA TYPHIMURIUM, Strain/Indicator: TA1535, Metabolic Activation: RAT, LIVER, S-9, AROCLOR 1254 (10 OR 30%), Method: PREINCUBATION
  mutagenic call: inactive; negative
Test System: AMES SALMONELLA TYPHIMURIUM, Strain/Indicator: TA1535, Metabolic Activation: RAT, LIVER, S-9, KC 500, Method: PREINCUBATION
  mutagenic call: inactive; negative
Test System: AMES SALMONELLA TYPHIMURIUM, Strain/Indicator: TA1537, Metabolic Activation: HAMSTER, LIVER, S-9, AROCLOR 1254 (30%), Method: PREINCUBATION
  mutagenic call: inactive; negative
Test System: AMES SALMONELLA TYPHIMURIUM, Strain/Indicator: TA1537, Metabolic Activation: NONE, Method: PREINCUBATION
  mutagenic call: inactive; negative
Test System: AMES SALMONELLA TYPHIMURIUM, Strain/Indicator: TA1537, Metabolic Activation: RAT, LIVER, S-9, AROCLOR 1254 (30%), Method: PREINCUBATION
  mutagenic call: inactive; negative
Test System: AMES SALMONELLA TYPHIMURIUM, Strain/Indicator: TA1537, Metabolic Activation: RAT, LIVER, S-9, KC 500, Method: PREINCUBATION
  mutagenic call: inactive; negative
Test System: AMES SALMONELLA TYPHIMURIUM, Strain/Indicator: TA1538, Metabolic Activation: NONE, Method: PREINCUBATION
  mutagenic call: inactive; negative
Test System: AMES SALMONELLA TYPHIMURIUM, Strain/Indicator: TA1538, Metabolic Activation: RAT, LIVER, S-9, KC 500, Method: PREINCUBATION
  mutagenic call: inactive; negative
Test System: Ames Salmonella typhimurium, Strain/Indicator: TA98, Metabolic Activation: None, Method: Preincubation
  mutagenic call: inactive; negative
Test System: Ames Salmonella typhimurium, Strain/Indicator: TA98, Metabolic Activation: Rat, Liver, S-9, Phenobarbital and 5,6-benzoflavone, Method: Preincubation
  mutagenic call: inactive; negative
Test System: Ames Salmonella typhimurium, Strain/Indicator: TA100, Metabolic Activation: None, Method: Preincubation
  mutagenic call: inactive; negative
Test System: Ames Salmonella typhimurium, Strain/Indicator: TA100, Metabolic Activation: Rat, Liver, S-9, Phenobarbital and 5,6-benzoflavone, Method: Preincubation
  mutagenic call: inactive; negative
Test System: Ames Salmonella typhimurium, Strain/Indicator: TA1535, Metabolic Activation: None, Method: Preincubation
  mutagenic call: inactive; negative
Test System: Ames Salmonella typhimurium, Strain/Indicator: TA1535, Metabolic Activation: Rat, Liver, S-9, Phenobarbital and 5,6-benzoflavone, Method: Preincubation
  mutagenic call: inactive; negative
Test System: Ames Salmonella typhimurium, Strain/Indicator: TA1537, Metabolic Activation: None, Method: Preincubation
  mutagenic call: inactive; negative
Test System: Ames Salmonella typhimurium, Strain/Indicator: TA1537, Metabolic Activation: Rat, Liver, S-9, Phenobarbital and 5,6-benzoflavone, Method: Preincubation
  mutagenic call: inactive; negative
Test System: CHINESE HAMSTER V-79, Strain/Indicator: V-79 (HPRT)/6-THIOGUANINE, Metabolic Activation: NONE, Method: STANDARD PLATE
  mutagenic call: inactive; negative
Test System: CHINESE HAMSTER V-79, Strain/Indicator: V-79 (HPRT)/6-THIOGUANINE, Metabolic Activation: RAT LIVER S-9, Method: STANDARD PLATE
  mutagenic call: inactive; negative
Test System: E. COLI, Strain/Indicator: WP2 UVRA, Metabolic Activation: NONE, Method: PREINCUBATION
  mutagenic call: inactive; negative
Test System: E. COLI, Strain/Indicator: WP2 UVRA, Metabolic Activation: RAT, LIVER, S-9, KC 500, Method: PREINCUBATION
  mutagenic call: inactive; negative
Test System: E. coli, Strain/Indicator: WP2uvrA/pKM101, Metabolic Activation: None, Method: Preincubation
  mutagenic call: inactive; negative
Test System: E. coli, Strain/Indicator: WP2uvrA/pKM101, Metabolic Activation: Rat, Liver, S-9, Phenobarbital and 5,6-benzoflavone, Method: Preincubation
  mutagenic call: inactive; negative

## Cc1cccc2c([N+](=O)[O-])cc[n+]([O-])c12
Test System: UDS RODENT PRIMARY CELLS, Strain/Indicator: THY INCORP (NON-S-PHASE), Metabolic Activation: NONE, Method: AUTORADIOGRAPHY
  mutagenic call: active; positive

## CCc1cccc(CC)c1NC(=O)CCl
[1]
  mutagenic call: inactive; negative
Test System: AMES SALMONELLA TYPHIMURIUM, Strain/Indicator: TA98, Metabolic Activation: RAT, LIVER, MICROSOMES, PHENOBARBITAL, Method: PREINCUBATION
  mutagenic call: inactive; negative
[2]
  mutagenic call: active; positive
Test System: AMES SALMONELLA TYPHIMURIUM, Strain/Indicator: TA100, Metabolic Activation: RAT, LIVER, MICROSOMES, PHENOBARBITAL, Method: PREINCUBATION
  mutagenic call: active; positive

## C/C(=C(/OCCOc1ccc(Cl)cc1)c1ccc(Cl)cc1Cl)n1ccnc1
Test System: AMES SALMONELLA TYPHIMURIUM, Strain/Indicator: TA98, Metabolic Activation: NONE, Method: STANDARD PLATE
  mutagenic call: inactive; negative
Test System: AMES SALMONELLA TYPHIMURIUM, Strain/Indicator: TA98, Metabolic Activation: RAT, LIVER, S-9, PHENOBARBITAL AND 5,6-BENZOFLAVONE, Method: STANDARD PLATE
  mutagenic call: inactive; negative
Test System: AMES SALMONELLA TYPHIMURIUM, Strain/Indicator: TA100, Metabolic Activation: NONE, Method: STANDARD PLATE
  mutagenic call: inactive; negative
Test System: AMES SALMONELLA TYPHIMURIUM, Strain/Indicator: TA100, Metabolic Activation: RAT, LIVER, S-9, PHENOBARBITAL AND 5,6-BENZOFLAVONE, Method: STANDARD PLATE
  mutagenic call: inactive; negative
Test System: AMES SALMONELLA TYPHIMURIUM, Strain/Indicator: TA1535, Metabolic Activation: NONE, Method: STANDARD PLATE
  mutagenic call: inactive; negative
Test System: AMES SALMONELLA TYPHIMURIUM, Strain/Indicator: TA1535, Metabolic Activation: RAT, LIVER, S-9, PHENOBARBITAL AND 5,6-BENZOFLAVONE, Method: STANDARD PLATE
  mutagenic call: inactive; negative
Test System: AMES SALMONELLA TYPHIMURIUM, Strain/Indicator: TA1537, Metabolic Activation: NONE, Method: STANDARD PLATE
  mutagenic call: inactive; negative
Test System: AMES SALMONELLA TYPHIMURIUM, Strain/Indicator: TA1537, Metabolic Activation: RAT, LIVER, S-9, PHENOBARBITAL AND 5,6-BENZOFLAVONE, Method: STANDARD PLATE
  mutagenic call: inactive; negative
Test System: E. COLI, Strain/Indicator: WP2 UVRA, Metabolic Activation: NONE, Method: STANDARD PLATE
  mutagenic call: inactive; negative
Test System: E. COLI, Strain/Indicator: WP2 UVRA, Metabolic Activation: RAT, LIVER, S-9, PHENOBARBITAL AND 5,6-BENZOFLAVONE, Method: STANDARD PLATE
  mutagenic call: inactive; negative

## CCCC/C=C/C=C/C=C/C=C/C=C/OC[C@@H](O)CO
[2]
  mutagenic call: active; positive
Test System: AMES SALMONELLA TYPHIMURIUM, Strain/Indicator: TA100, Metabolic Activation: RAT, LIVER, S-9, AROCLOR 1254, Method: PREINCUBATION
  mutagenic call: active; positive
